Reference: patent US12344649B2, “Modulators of parathyroid hormone receptor (PTHR1)” (Flagship Pioneering Innovations VI, LLC, priority 2019, dated 2025)
Where “and” joins values, the source holds several entries; their conditions need not be identical. Equal values may be shown once. Where no end group is shown, it is not given here.

Tests used:
Type in all cases: cell-based
PTHR1 [1] = biological target: T1, PTHR1 (Homo sapiens, UniProt Q03431); assay: β-arrestin1 recruitment BRET assay in transfected HEK293T cells; design: Flag (N); Life Technologies Corporation, CA (arrestin cDNA); host or cells: HEK293T (CRL-3216, ATCC); conditions: for −log10Slope / EC50: β-arrestin1 recruitment, replicate plates; for −log10Slope: fitted curve slope; for EC50: read-out: −log10EC50 (converted)
T1 sequence (Q03431 27-593): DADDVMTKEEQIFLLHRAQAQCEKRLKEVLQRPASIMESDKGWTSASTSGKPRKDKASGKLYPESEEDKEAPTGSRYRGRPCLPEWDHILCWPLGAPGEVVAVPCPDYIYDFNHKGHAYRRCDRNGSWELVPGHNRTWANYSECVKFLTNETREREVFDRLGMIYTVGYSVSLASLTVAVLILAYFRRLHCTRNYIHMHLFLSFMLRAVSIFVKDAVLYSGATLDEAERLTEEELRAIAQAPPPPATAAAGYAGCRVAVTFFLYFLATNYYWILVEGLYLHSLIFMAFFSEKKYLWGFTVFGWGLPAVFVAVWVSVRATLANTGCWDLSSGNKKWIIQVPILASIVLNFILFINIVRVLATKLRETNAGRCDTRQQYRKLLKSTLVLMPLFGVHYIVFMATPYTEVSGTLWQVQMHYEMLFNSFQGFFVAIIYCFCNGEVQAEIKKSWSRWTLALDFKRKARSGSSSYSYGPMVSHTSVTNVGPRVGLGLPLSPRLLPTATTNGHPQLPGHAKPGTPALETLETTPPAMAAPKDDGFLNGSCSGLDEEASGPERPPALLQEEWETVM
Method: (§1) 18-24 hours post transfection, the Luciferase substrate Coelenterazine (NanoLight Technologies, AZ) was added to cells, a baseline BRET measurement was taken after 5 minutes incubation, and then serial dilutions of peptides, diluted in PBS (with 0.5 mM MgCl2+0.1% BSA FAF), were added to cells, and BRET signal was measured every 2 minutes for 30 minutes on Hybrid Multi-Mode Reader (Synergy Neo2, BioTek, VT). Seventy-five peptides were tested in the β-arrestin recruitment assay.

PTHR1 [2] = biological target: T1, PTHR1; assay: cAMP accumulation assay (HTRF) in CHO-K1/Ga15/PTHR1 cells; design: host or cells: CHO-K1 (recombinant line CHO-K1/Ga15/PTHR1); conditions: for Emax: CHO-K1, cAMP assay, fitted dose-response maximum; for EC50: read-out: −log10EC50 (converted)
Method: Cell suspension (5 μL) was seeded in 384-well plates at a density of 3,000 cells/well. Cells were treated with test samples (5 μL) or agonist (PTH 1-34) for 30 minutes at room temperature. cAMP-d2 working solution (5 μL) and anti-cAMP-Cryptate working solution (5 μL) were added to cells and incubated for 60 minutes at room temperature. The signal of the assay plate was read with PheraStar (BMG LABTECH, NC), an HTRF compatible reader.

PTHR1 [3] = biological target: T1, PTHR1; assay: β-arrestin2 recruitment BRET assay in transfected HEK293T cells; design: Flag (N); Life Technologies Corporation, CA (arrestin cDNA); host or cells: HEK293T (CRL-3216, ATCC); conditions: for −log10Slope / EC50: β-arrestin2 recruitment, replicate plates; for −log10Slope: fitted curve slope; for β-arrestin2 assay activity compared to control peptide: FIG. 2, PTH 1-34 positive control; for β2-arrestin: relative to PTH [1-34], HEK293T cells, BRET; for EC50: read-out: −log10EC50 (converted)
Method: as §1

[4] = cAMP assay, fitted dose-response curve
[5] = cAMP assay, fitted dose-response slope
[6] = cAMP accumulation, fitted curve slope, replicate plates
[7] = cAMP accumulation, replicate plates

Sequence | β-arrestin1 recruitment compared to PTH 1-34 (PTHR1 [1]; FIG. 1, PTH 1-34 positive control) | β1-arrestin (PTHR1 [1]; relative to PTH [1-34], HEK293T cells, BRET) | −log10Slope (PTHR1 [1]) | EC50 (PTHR1 [1]) | Emax (PTHR1 [2]) | EC50 (PTHR1 [2]; [4]) | −log10Slope (PTHR1 [2]; [5]) | −log10Slope (PTHR1 [3]) | cAMP accumulation activity compared to control peptide (PTHR1 [2]; FIG. 3, PTH 1-34 positive control) | cAMP (PTHR1 [2]; relative to PTH [1-34], CHO-K1/Ga15/PTHR1 cells) | −log10Slope (PTHR1 [2]; [6]) | EC50 (PTHR1 [2]; [7]) | β-arrestin2 assay activity compared to control peptide (PTHR1 [3]) | β2-arrestin (PTHR1 [3]) | EC50 (PTHR1 [3])
GIAVITLMLLRAYLELLEELVKILHELLRRYH [Peptide R2-52] | higher levels of recruitment of β-arrestin 1 | ++ | 2.312 | 0.149 nM | 97.4% | 2570 nM | −3.437 | −0.9875 |  |  |  |  |  |  | 
GIAVITLMVLRALLELQEIGRKITLELLKEYI [Peptide R2-51] |  |  | −1.524 | 29400 nM | 3.99% | 0.105 nM | 10.26 | −5.93 | increased activity as compared to the control peptide | ++ |  |  |  |  | 
GVAELQLMHDLAKIRAEYELREMLLRLLEEIF [Peptide R2-1] |  |  | −0.1441 |  |  |  |  | −1.954 |  |  | −5.896 | 95.8 nM | increased activity as compared to control | ++ | 0.622 nM
GVAMIQIMHDIAKIRAEYELREMLLRLLEEIF [Peptide R2-2] |  |  | −1.586 and −3.87 |  |  |  |  | 2.528 and −0.3398 |  |  | −3.889 | 187 nM |  |  | 
GVAMLQIMHDLAKIKQELELKDSMKKILEDVL [Peptide R2-50] |  |  | −3.908 and −4.767 | 1200 nM | 99.8% | 574 nM | −8.416 | −1.169 and 10.26 |  |  |  |  | increased activity as compared to control | ++ | 0.0304 nM
SVMMIQVMHDLAKIRAEYELREMLLRLLEEIF [Peptide R2-8] |  |  | −2.339 | 3.7 nM |  |  |  | 4.445 |  |  | −24.9299 | 31.9 nM | increased activity as compared to control | ++ | 0.349 nM
